pIC50: −log10 of the molar value.
Assays:
Homo sapiens = species: Homo sapiens; experiment: Binding affinity to N-terminal His-tagged ML-IAP K135A mutant (63 to 179 residues) (unknown origin) expressed in Escherichia coli BL21 assessed as change in melting temperature at 20 uM incubated for 2 hrs followed by heating at 40 to 70 degree C for 30 mins by SYPRO orange dye based thermal shift assay; details: time 150.0 min
SK-MEL-28 [1] = experiment: Induction of apoptosis in human SK-MEL-28 cells assessed as increase in caspase-3/7 activity measured up to 48 hrs in presence of 0.1 ng/mL TNFlpha by IncuCyteS3 caspase-3/7 fluorescence-based apoptosis assay; assay type: functional, cell-based; details: dose 0.1-10 µM, DDE = dose-dependent effect
SK-MEL-28 [2] = experiment: Induction of apoptosis in human SK-MEL-28 cells assessed as increase in caspase-3/7 activity at 0.1 to 10 uM in presence of 0.1 ng/mL TNFlpha by IncuCyteS3 caspase-3/7 fluorescence-based apoptosis assay; assay type: functional, cell-based; details: dose 0.1-10 µM, time <= 48.0 hrs, TDE = time-dependent effect
[3] = target: T1, Baculoviral IAP repeat-containing protein 7 (Homo sapiens, UniProt Q96CA5); experiment: Antagonist activity at N-terminal His-tagged wild type ML-IAP BIR domain (63 to 179 residues) (unknown origin) expressed in Escherichia coli BL21 using AVPIAQKSEK-biotinylated peptide as substrate incubated for 2 hrs by DELFIA assay
T1 sequence (Q96CA5 whole entry): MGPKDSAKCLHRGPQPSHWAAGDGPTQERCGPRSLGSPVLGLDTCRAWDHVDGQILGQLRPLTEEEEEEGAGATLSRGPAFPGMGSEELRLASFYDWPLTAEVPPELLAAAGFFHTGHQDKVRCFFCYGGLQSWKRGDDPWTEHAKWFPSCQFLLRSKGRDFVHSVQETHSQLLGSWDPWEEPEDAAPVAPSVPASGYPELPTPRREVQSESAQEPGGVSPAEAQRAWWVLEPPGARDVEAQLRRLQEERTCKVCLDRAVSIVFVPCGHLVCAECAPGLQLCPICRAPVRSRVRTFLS

[4] = target: E3 ubiquitin-protein ligase XIAP (Homo sapiens, UniProt P98170); experiment: Antagonist activity at N-terminal His-tagged XIAP-BIR3 domain (253 to 347 residues)(unknown origin) expressed in Escherichia coli BL21 using AVPIAQKSEK-biotinylated peptide as substrate incubated for 2 hrs by DELFIA assay
[5] = target: Baculoviral IAP repeat-containing protein 2 (Homo sapiens, UniProt Q13490); experiment: Antagonist activity at N-terminal His-tagged cIAP1-BIR3 domain (unknown origin) expressed in Escherichia coli BL21 using AVPIAQKSEK-biotinylated peptide as substrate incubated for 2 hrs by DELFIA assay
[6] = target: Baculoviral IAP repeat-containing protein 3 (Homo sapiens, UniProt Q13489); experiment: Antagonist activity at N-terminal His-tagged cIAP2-BIR3 domain (unknown origin) expressed in Escherichia coli BL21 using AVPIAQKSEK-biotinylated peptide as substrate incubated for 2 hrs by DELFIA assay
[7] = target: T1, Baculoviral IAP repeat-containing protein 7; experiment: Antagonist activity at N-terminal His-tagged wild type ML-IAP BIR domain (63 to 179 residues)(unknown origin) expressed in Escherichia coli BL21 using AVPIAQKSEK-biotinylated peptide as substrate preincubated for 2 hrs with protein followed by substrate addition measured after 2 hrs by DELFIA assay
[8] = target: T2, Baculoviral IAP repeat-containing protein 7 (Homo sapiens) (UniProt Q96CA5); details: dose 20.0 µM, time 150.0 min
T2 sequence (whole entry): T1 sequence (Q96CA5 whole entry)

E3 ubiquitin-protein ligase XIAP, sequence (P98170 whole entry, the tested form may be a part): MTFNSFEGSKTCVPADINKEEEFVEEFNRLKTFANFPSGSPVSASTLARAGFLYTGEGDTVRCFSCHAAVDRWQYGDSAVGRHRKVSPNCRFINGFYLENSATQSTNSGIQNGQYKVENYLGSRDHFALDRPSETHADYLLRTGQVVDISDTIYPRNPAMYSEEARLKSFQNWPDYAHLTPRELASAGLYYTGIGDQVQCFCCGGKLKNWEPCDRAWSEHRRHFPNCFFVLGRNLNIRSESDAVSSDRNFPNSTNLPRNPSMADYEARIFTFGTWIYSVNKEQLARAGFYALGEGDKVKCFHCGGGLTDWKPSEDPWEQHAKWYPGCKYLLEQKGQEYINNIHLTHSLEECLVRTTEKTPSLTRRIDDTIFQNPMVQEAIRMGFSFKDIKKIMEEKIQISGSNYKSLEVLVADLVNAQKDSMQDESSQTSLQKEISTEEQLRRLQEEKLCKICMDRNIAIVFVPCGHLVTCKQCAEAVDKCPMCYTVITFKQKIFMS
Baculoviral IAP repeat-containing protein 3, sequence (Q13489 whole entry, the tested form may be a part): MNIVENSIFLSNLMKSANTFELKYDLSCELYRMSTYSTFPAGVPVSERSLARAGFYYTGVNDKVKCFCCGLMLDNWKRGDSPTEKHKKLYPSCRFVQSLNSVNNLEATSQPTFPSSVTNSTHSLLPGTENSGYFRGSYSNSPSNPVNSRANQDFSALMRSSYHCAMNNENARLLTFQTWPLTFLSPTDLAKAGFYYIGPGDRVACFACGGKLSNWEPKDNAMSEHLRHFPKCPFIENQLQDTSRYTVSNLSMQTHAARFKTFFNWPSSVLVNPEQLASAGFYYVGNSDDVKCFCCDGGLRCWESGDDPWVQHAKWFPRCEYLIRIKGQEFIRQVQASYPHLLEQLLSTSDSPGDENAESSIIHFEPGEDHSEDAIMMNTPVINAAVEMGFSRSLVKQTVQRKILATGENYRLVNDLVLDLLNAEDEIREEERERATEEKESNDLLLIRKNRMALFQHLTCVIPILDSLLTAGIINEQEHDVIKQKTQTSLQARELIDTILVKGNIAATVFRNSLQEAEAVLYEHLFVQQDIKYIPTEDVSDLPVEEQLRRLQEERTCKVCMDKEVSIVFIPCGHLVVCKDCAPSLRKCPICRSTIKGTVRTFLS
Baculoviral IAP repeat-containing protein 2, sequence (Q13490 whole entry, the tested form may be a part): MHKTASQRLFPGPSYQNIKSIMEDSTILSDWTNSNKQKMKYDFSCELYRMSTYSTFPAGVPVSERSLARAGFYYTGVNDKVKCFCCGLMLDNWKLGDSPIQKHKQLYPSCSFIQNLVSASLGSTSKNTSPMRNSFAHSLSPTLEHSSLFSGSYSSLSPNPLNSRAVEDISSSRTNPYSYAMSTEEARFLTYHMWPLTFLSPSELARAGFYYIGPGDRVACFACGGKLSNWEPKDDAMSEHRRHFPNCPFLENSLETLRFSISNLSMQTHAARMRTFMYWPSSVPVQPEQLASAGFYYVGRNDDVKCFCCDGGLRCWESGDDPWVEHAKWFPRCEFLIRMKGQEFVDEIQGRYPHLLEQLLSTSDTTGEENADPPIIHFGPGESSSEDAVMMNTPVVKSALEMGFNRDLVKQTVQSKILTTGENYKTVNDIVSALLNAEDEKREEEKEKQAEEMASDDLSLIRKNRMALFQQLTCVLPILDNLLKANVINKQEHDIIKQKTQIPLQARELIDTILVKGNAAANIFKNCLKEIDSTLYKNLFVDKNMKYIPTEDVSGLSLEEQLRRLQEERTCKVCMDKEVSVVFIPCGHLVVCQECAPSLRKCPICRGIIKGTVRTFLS

Row | ΔTm (Homo sapiens) [°C] | SMILES | Activity (SK-MEL-28 [1]) | Activity (SK-MEL-28 [2]) | pIC50 [3] | pIC50 [4] | pIC50 [6] | also measured
1 | 4.7 | CN[C@@H](C)C(=O)N[C@@H](CNC(=O)c1cc(S(=O)(=O)O)ccc1OC)C(=O)N1CCC[C@H]1C(=O)N[C@@H]1CCc2ccccc21 |  |  |  |  |  | 
2 |  | CN[C@@H](C)C(=O)N[C@@H](CNC(=O)c1cccc(S(=O)(=O)F)c1)C(=O)N1CCC[C@H]1C(=O)NC1Cc2ccccc2C1 |  |  | < 6.00 | < 5.60 | < 5.82 | pIC50 [5]: < 6.00
3 | 14.5 | CN[C@@H](C)C(=O)N[C@H](C(=O)N1CCC[C@H]1c1nc(C(=O)c2ccc(F)cc2)cs1)C1CCCCC1 [LCL-161] | Dde | Tde | 8.05 |  |  | pIC50 [7]: 7.82; ΔTm [8]: 12.6 °C
4 |  | CN[C@@H](C)C(=O)N[C@@H](CNC(=O)c1cc(S(=O)(=O)F)ccc1OC)C(=O)N1CCC[C@H]1C(=O)N[C@@H]1CCc2c(F)cccc21 |  |  |  | < 6.00 |  | 
5 |  | CN[C@@H](C)C(=O)N[C@@H](CNC(=O)c1cc(S(=O)(=O)F)ccc1OC)C(=O)N1CCCC[C@H]1C(=O)N[C@@H](Cc1ccccc1)C(N)=O |  |  |  | < 5.60 | < 5.70 | 

Row | SMILES | ΔTm (Homo sapiens) [°C] | Activity (SK-MEL-28 [1]) | Activity (SK-MEL-28 [2]) | pIC50 [3] | pIC50 [4] | pIC50 [6] | also measured
6 | CN[C@@H](C)C(=O)N[C@@H](CNC(=O)c1cc(S(=O)(=O)F)ccc1OC)C(=O)N1CCC[C@H]1C(=O)N[C@@H]1CCc2ccccc21 | 6.2 | Dde | Tde |  |  |  | 

— ChEMBL document CHEMBL5096205, “Lysine Covalent Antagonists of Melanoma Inhibitors of Apoptosis Protein” (J Med Chem, 2021)
